Source: publication PMC6592956, “Characterization of Porcine Hepatic and Intestinal Drug Metabolizing CYP450: Comparison with Human Orthologues from A Quantitative, Activity and Selectivity Perspective” (Scientific Reports, 2019)
Marks after values point to notes of the source that are not given here.

Columns and labels:
CYP2E = experiment: Incubation with inhibitors: CZ-hydroxylation in porcine hepatic microsomes; format: in vitro ADME, conventional pig
Experimental: (§1) The inhibitors used were α-NFV, 8-MPS, KET, SFZ, QND, and DDC for CYP1A/2 A, CYP2A, CYP3A, CYP2C, CYP2D, and CYP2E1, respectively. […] All incubations were performed in triplicate.

CYP2A = experiment: Incubation with inhibitors: CM-hydroxylation in porcine hepatic microsomes; format: in vitro ADME, conventional pig
Experimental: as §1

CYP3A = experiment: Incubation with inhibitors: MDZ-hydroxylation in porcine hepatic microsomes; format: in vitro ADME, conventional pig; conditions: MDZ 20 µM; inhibitors SFZ 0.5, α-NFV 0.1 (1 µM), QND 0.1, KET 0.3, DDC 20, 8-MPS 1 µM; mean (SD) of 3
Experimental: as §1

CYP1A [1] = experiment: Incubation with inhibitors: PH-O-deethylation in porcine hepatic microsomes; format: in vitro ADME, conventional pig
Experimental: as §1

CYP2D = biological target: T1, CYP2D (Sus scrofa, UniProt O46658); experiment: Incubation with inhibitors: DXM-O-demethylation in porcine hepatic microsomes; format: in vitro ADME, conventional pig; conditions: DXM 10 µM; inhibitors SFZ 0.5, α-NFV 0.1 (1 µM), QND 0.1, KET 0.3, DDC 20, 8-MPS 1 µM; mean (SD) of 3
T1 construct: from tissue; host or cells: pig liver microsomes
T1 sequence (O46658 1-500): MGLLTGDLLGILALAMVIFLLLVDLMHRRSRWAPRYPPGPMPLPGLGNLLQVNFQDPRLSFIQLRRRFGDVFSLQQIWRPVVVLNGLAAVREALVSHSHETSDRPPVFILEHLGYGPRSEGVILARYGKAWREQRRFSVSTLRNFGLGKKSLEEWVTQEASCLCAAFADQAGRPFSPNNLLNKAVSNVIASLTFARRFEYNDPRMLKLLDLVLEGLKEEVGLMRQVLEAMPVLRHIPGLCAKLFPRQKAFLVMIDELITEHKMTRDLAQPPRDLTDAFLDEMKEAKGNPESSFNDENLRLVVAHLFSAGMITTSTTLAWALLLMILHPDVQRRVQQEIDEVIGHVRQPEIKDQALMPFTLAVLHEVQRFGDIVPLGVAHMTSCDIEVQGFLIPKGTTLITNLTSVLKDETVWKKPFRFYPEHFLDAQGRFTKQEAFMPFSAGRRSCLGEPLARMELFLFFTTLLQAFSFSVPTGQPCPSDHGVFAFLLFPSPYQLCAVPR
Experimental: as §1

CYP2C = conditions: TB 200 µM; inhibitors SFZ 0.5, α-NFV 0.1 (1 µM), QND 0.1, KET 0.3, DDC 20, 8-MPS 1 µM; mean (SD) of 3
Experimental: To assess the selectivity of the probes, incubation with human specific CYP450 inhibitors was performed. […] All incubations were performed in triplicate. Fourth, typical inhibitors for each of the reactions were included at previously reported Ki values[43],[64].

CYP1A [2] = conditions: n = 8
Experimental: (§2) The incubation times were derived from linearity experiments. […] Protein concentrations and time were chosen at the lowest possible value to allow reliable quantification, within the linear range of the biotransformation reaction.
(§3) The activity data were fitted against the standard Michaelis-Menten equation (Eq. (1a), first term). For each profile, Eadie-Hofstee plots were derived to investigate involvement of more than one enzyme or deviation from normal Michaelis-Menten behaviour. If the Eadie-Hofstee plot was hyperbolic, the data was fitted against the Hill equation[60]. Km, Vmax and/or Hill coefficients were derived for each substrate and pig, in order to obtain the inter-individual variation.
(§4) Stepwise linear regression, correlation analyses, and independent sample t-tests were performed with the SPSS® 24 software (IBM, New York, USA). Sex differences in hepatic protein abundances, Km, and Vmax values, were analyzed by an independent sample t-test. Normality was checked using the Shapiro Wilk test. If the Shapiro Wilk test statistic was significant, log transformation was used to calculate the t-statistic. Equality of variances was checked using the Levene’s test for equality of variances. The appropriate test statistic was used depending on the equality of variances.

CYP1A [3] = conditions: n = 8; remark: listed apart in the source
Experimental: as §2, §3, §4

[4] = tested on: porcine intestinal CYP450 enzymes; conditions: duodenum, jejunum, ileum
Experimental: Intestinal microsomes were incubated as described above for hepatic microsomes. […] Each activity measurement (hepatic and intestinal) was performed in triplicate and data are present [...

porcine CYP450 = conditions: outcome of general decision tree, Figure 4
[5] = tested on: hepatic CYP450 abundancies; experiment: Pearson correlation between hepatic CYP450 abundancies and probe activities

Molecule: O=c1cc(-c2ccccc2)oc2c1ccc1ccccc12 [α-naphthoflavone]
- Ratio of residual activity (substrate + inhibitor versus substrate only), CYP2E CZ (CYP2E; CZ 50 µM, inhibitors SFZ 0.5, α-NFV 0.1 (1 µM), QND 0.1, KET 0.3, DDC 20, 8-MPS 1 µM, mean (SD) of 3): 1.06 (0.057)
- Inhibition of CZ-hydroxylation by inhibitor (CYP2E; porcine hepatic microsomes): did not inhibit
- Ratio of residual activity (substrate + inhibitor versus substrate only), CYP2A CM (CYP2A; CM 1 µM, inhibitors SFZ 0.5, α-NFV 0.1 (1 µM), QND 0.1, KET 0.3, DDC 20, 8-MPS 1 µM, mean (SD) of 3): 0.94 (0.131)
- inhibition at 1 µM (CYP2A; pig, porcine hepatic microsomes, probe coumarin 1 µM (CM-hydroxylation), inhibitor 1 µM, read-out: Maximal inhibition of other reactions (CM)): 4%
- Inhibition of CM-hydroxylation by inhibitor (CYP2A; porcine hepatic microsomes): 5%
- Ratio of residual activity (substrate + inhibitor versus substrate only), CYP3A MDZ (CYP3A): 1.08 (0.048)
- Ratio of residual activity (substrate + inhibitor versus substrate only), CYP1A PH (CYP1A [1]; PH 20 µM, inhibitors SFZ 0.5, α-NFV 0.1 (1 µM), QND 0.1, KET 0.3, DDC 20, 8-MPS 1 µM, mean (SD) of 3): 0.76 (0.011)
- PH-O-deethylation (CYP1A2) activity, % of the control value (CYP1A [1]; inhibitor increased to 1 µM): 76%
- inhibition at 0.1 µM (CYP1A [1]; pig, probe phenacetin 20 µM (PH-O-deethylation), porcine hepatic microsomes, read-out: Inhibition of PH-O-deethylation by inhibitor): 24%
- Ratio of residual activity (substrate + inhibitor versus substrate only), CYP2D DXM (CYP2D): 1.02 (0.143)
- Ratio of residual activity (substrate + inhibitor versus substrate only), CYP2C TB (CYP2C): 1.13 (0.099)

Molecule: CCOc1ccc(NC(C)=O)cc1 [PH, phenacetin]
- log_Km, male (CYP1A [2]): 1,2876
- log_Km, female (CYP1A [3]): 1,1345

Molecule: O=c1ccc2ccccc2o1 [CM, coumarin]
- CM-hydroxylase activity in the intestine [4]: No CM-hydroxylase activity could be detected
- Enzyme involvement: High affinity (porcine CYP450): CYP2A19
- Pearson's correlation coefficient, CM activity vs hepatic CYP2A19 abundance ([5]; level 3 (CM 2.00 µM)): 0.62
- Pearson's correlation coefficient, CM activity vs hepatic CYP2A19 abundance ([5]; level 4 (CM 5.00 µM)): 0.66*
- Pearson's correlation coefficient, CM activity vs hepatic CYP2A19 abundance ([5]; level 5 (CM 20.0 µM)): 0.67*
- Pearson's correlation coefficient, CM activity vs hepatic CYP2A19 abundance ([5]; level 6 (CM 100 µM)): 0.66*

B1: CYP2D25 (protein, UniProt O46658 2-500, looked up)
Vitamin D(3) 25-hydroxylase: GLLTGDLLGILALAMVIFLLLVDLMHRRSRWAPRYPPGPMPLPGLGNLLQVNFQDPRLSFIQLRRRFGDVFSLQQIWRPVVVLNGLAAVREALVSHSHETSDRPPVFILEHLGYGPRSEGVILARYGKAWREQRRFSVSTLRNFGLGKKSLEEWVTQEASCLCAAFADQAGRPFSPNNLLNKAVSNVIASLTFARRFEYNDPRMLKLLDLVLEGLKEEVGLMRQVLEAMPVLRHIPGLCAKLFPRQKAFLVMIDELITEHKMTRDLAQPPRDLTDAFLDEMKEAKGNPESSFNDENLRLVVAHLFSAGMITTSTTLAWALLLMILHPDVQRRVQQEIDEVIGHVRQPEIKDQALMPFTLAVLHEVQRFGDIVPLGVAHMTSCDIEVQGFLIPKGTTLITNLTSVLKDETVWKKPFRFYPEHFLDAQGRFTKQEAFMPFSAGRRSCLGEPLARMELFLFFTTLLQAFSFSVPTGQPCPSDHGVFAFLLFPSPYQLCAVPR
- log abundance, Mean Difference (t-test for Equality of Means) (hepatic CYP450): ,05407
- log abundance, Sig. (2-tailed) (hepatic CYP450): ,497

B2: CYP3A29 (protein, UniProt P79401 1-503, looked up)
Cytochrome P450 3A29: MDLIPGFSTETWVLLATSLVLLYLYGTYSHGLFKKLGIPGPRPLPYFGNILGYRKGVDHFDKKCFQQYGKMWGVYDGRQPLLAVTDPNMIKSVLVKECYSVFTNRRSFGPLGAMRNALSLAEDEEWKRIRTLLSPTFTSGKLKEMFPIISHYGDLLVSNLRKEAEKGKPVTMKDIFGAYSMDVITSTAFGVNIDSLNNPQDPFVENSKKLLKFSFFDPFLLSLIFFPFLTPIFEVLNITLFPKSSVNFFTKSVKRMKESRLTDQQKRRVDLLQLMINSQNSKEMDPHKSLSNEELVAQGIIFIFAGYETTSSALSLLAYELATHPDVQQKLQEEIEATFPNKAPPTYDALAQMEYLDMVVNETLRLYPIAARLERACKKDVEIHGVFVPKGTVVVVPVFVLHRDPDLWPEPEEFRPERFSKKHKDTINPYTYLPFGTGPRNCIGMRFALMNMKLALVRVLQNFSFKPCKETQIPLKLTTQGLTQPEKPVVLKILPRDGTVSGA
- Amount (hepatic CYP450): 4.74 pmol/mg protein
